# Measurements as given in ChEMBL document CHEMBL1201862, “PubChem BioAssay data set” (2004).
# The source made the active and inactive calls.
# Key:
# [1] = Trypanosoma cruzi growth suppression in host cells – NIH3T3 host cells, beta-gal luminescence, confirmation (AID 2044); type: functional, cell-based;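 further: intracellular parasites grown in NIH/3T3 mouse fibroblasts as host cells; luminescent beta-galactosidase reporter signal from transgenic T. cruzi replicating inside host cells; inhibitors lower the luminescence signal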
# [2] = NIH3T3 cell viability loss – ATP luminescence, mouse fibroblasts, counter-screen, dose response (AID 2010); type: functional, cell-based;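 further: cells exposed to compound for about 90 hours before reading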
# Escherichia coli = assay: microbe, parasite or virus in culture
# Cytochrome P450 2C9 = Cytochrome P450 2C9 (Homo sapiens, UniProt P11712)
# Cytochrome P450 2C9, sequence (P11712 whole entry): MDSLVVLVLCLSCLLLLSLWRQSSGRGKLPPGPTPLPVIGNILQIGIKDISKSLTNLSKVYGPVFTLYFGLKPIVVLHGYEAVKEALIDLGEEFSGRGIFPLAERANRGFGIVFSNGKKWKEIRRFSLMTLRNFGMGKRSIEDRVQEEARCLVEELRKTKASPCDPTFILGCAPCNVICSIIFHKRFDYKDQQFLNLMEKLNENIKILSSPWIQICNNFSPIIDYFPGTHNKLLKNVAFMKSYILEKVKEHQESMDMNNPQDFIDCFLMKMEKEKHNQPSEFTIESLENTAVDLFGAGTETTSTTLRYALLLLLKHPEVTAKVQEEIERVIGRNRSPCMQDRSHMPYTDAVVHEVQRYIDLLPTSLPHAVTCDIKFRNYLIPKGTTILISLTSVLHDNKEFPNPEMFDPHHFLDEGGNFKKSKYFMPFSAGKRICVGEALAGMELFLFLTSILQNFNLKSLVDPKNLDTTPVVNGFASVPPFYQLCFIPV
# Cytochrome P450 2D6 = Cytochrome P450 2D6 (Homo sapiens, UniProt P10635);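 further: CYP2D6 member of a cytochrome P450 panel assay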
# Cytochrome P450 2D6, sequence (P10635 whole entry): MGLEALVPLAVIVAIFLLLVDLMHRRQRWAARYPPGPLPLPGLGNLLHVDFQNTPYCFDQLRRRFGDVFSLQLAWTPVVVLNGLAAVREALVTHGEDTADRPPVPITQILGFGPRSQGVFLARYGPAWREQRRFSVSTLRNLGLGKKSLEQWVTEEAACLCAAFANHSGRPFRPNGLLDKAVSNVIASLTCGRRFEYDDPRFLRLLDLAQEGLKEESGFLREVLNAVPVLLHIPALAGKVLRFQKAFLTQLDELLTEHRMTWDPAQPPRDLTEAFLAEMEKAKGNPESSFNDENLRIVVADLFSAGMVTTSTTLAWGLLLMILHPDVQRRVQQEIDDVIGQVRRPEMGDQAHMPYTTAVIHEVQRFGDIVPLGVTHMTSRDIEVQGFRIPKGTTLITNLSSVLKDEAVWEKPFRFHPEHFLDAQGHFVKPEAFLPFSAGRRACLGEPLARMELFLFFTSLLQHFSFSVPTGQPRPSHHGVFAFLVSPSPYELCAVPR
# [3] = viability of uninfected HEp-2 cells – cell-based, HTS, cytotoxicity control for RSV inhibitor project, dose response (AID 2410); type: functional; conditions: human respiratory syncytial virus
# [4] = tested on: Streptococcus sp. 'group A'; assay: Streptococcus pyogenes SK(-)GAS viability under kanamycin – luminescence, BacTiterGlo, confirmation, counter-screen for streptokinase expression inhibitor project, dose response (AID 1900); type: functional, organism-based
# Streptokinase A = molecular target: T1, Streptokinase A (Streptococcus pyogenes serotype M1, UniProt P10520); assay: viability-normalized secreted streptokinase activity reduction – plasminogen activation absorbance, OD405, dose response (AID 1914); type: functional, Streptococcus pyogenes M1 GAS;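 further: secreted streptokinase activity via plasminogen activation per viability signal from cell pellet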
# T1 sequence (P10520 whole entry): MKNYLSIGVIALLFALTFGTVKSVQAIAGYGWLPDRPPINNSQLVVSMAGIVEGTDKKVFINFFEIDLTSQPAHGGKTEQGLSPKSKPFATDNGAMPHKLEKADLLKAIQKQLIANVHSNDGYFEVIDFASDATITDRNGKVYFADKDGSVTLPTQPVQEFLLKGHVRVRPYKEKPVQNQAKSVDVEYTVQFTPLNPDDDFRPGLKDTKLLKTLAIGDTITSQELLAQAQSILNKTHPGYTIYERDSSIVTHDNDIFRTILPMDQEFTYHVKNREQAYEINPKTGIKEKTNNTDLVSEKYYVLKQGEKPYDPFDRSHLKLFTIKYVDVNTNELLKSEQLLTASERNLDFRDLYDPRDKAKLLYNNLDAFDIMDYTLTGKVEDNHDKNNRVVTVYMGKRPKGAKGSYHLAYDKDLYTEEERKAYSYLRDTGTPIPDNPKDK
# Streptococcus = assay: GAS UMAA2166 growth inhibition – luminescence, BacTiterGlo, counter-screen for streptokinase expression inhibitor project, dose response (AID 1915); type: functional, organism-based;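 further: potency for reduction of bacterial viability or growth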
# Trypsin = Trypsin (Sus scrofa, UniProt P00761); assay: trypsin protease activity blockade – biochemical, quenched peptide fluorescence, cherry-pick, selectivity assay for Rce1 protease inhibitor project, dose response (AID 488789)
# Trypsin, sequence (P00761 whole entry): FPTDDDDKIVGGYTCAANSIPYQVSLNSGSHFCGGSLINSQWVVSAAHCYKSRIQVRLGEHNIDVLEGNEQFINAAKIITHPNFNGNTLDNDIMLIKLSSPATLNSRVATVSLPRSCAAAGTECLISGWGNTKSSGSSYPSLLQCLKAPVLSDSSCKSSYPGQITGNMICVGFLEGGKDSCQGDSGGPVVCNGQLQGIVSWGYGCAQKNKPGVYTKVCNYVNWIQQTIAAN
# CAAX prenyl protease 2 [5] = molecular target: T2, CAAX prenyl protease 2 (Homo sapiens, UniProt Q9Y256); assay: inhibition of Ras-converting CAAX protease Rce1 – biochemical, yeast membranes, quenched-peptide fluorescence, cherry-pick, dose response (AID 588849)
# T2 sequence (Q9Y256 whole entry): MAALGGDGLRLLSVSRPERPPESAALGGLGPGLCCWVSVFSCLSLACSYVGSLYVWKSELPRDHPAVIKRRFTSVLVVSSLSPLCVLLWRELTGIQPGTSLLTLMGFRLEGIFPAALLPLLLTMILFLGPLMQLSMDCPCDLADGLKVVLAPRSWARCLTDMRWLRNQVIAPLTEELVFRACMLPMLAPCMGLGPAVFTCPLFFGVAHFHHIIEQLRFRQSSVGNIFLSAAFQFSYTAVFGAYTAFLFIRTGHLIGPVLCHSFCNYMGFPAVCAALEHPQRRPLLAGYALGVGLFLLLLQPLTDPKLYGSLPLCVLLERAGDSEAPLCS
# CAAX prenyl protease 2 [6] = molecular target: T3, CAAX prenyl protease 2 (Saccharomyces cerevisiae S288c, UniProt Q03530); type: biochemical
# T3 sequence (Q03530 whole entry): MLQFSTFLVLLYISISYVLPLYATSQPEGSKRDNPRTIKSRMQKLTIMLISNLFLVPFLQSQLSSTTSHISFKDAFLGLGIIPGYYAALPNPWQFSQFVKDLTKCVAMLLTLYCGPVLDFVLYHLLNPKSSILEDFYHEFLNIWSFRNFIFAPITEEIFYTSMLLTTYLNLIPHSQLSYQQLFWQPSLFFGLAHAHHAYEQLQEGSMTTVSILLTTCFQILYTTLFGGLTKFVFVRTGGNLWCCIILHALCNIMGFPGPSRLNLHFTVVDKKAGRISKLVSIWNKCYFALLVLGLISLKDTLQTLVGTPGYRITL
# [7] = luciferase reporter signal suppression in cells – H4 neuroglioma cells, luminescence, dose response (AID 1990); type: functional, cell-based
# HEK293 [8] = assay: inhibition of NOD1-driven NF-kB reporter – cell-based, luminescence, uHTS, primary screen (AID 1578); type: functional; conditions: Homo sapiens
# HEK293 [9] = assay: cells; type: functional, cell-based; conditions: Homo sapiens
# [10] = Luminescence Cell-Based Dose Response HTS to Identify Inhibitors of 5'UTR Stem-Loop Driven Prion Protein mRNA Translation in H4 Neuroglioblastoma Cells. [Related pubchem assays: 1827 (Project Summary), 1813 (Primary HTS)]; type: functional
# [11] = alpha-synuclein stem-loop luciferase translation blockers – H4 neuroglioma cells, luminescence, confirmation (AID 1988); type: functional, cell-based
# HEK293 [12] = assay: cells; type: functional, cell-based; conditions: Homo sapiens; remark: listed apart in the source
# HEK293 [13] = assay: NOD2 signaling inhibitors in MDP-stimulated cells, cell-based, uHTS, luminescence (AID 2001); type: functional; conditions: Homo sapiens
# HEK293 [14] = assay: EBV LMP1 TES2 canonical NF-kB signalling blockers – cell-based, HEK293, luciferase, cherry-pick, dose response (AID 588343); type: functional; conditions: Homo sapiens
# [15] = blockers of bursicon-stimulated LGR2 cAMP reporter – cell-based, HEK293, CRE-luciferase reporter, cherry pick, set 2, dose response (AID 743343); type: functional;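 further: transfected cells were stimulated with diluted bursicon conditioned medium after compound addition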
# [16] = blockade of melanocortin 4 receptor signaling – cell-based, plate reader, cherry pick, counter-screen for LGR2 antagonist project, dose response (AID 743444); type: functional;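 further: transfected HEK 293 cells stimulated with alpha-MSH peptide; potency of inhibitors of the alpha-MSH evoked signal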
# Nonstructural protein 1 = Nonstructural protein 1 (Influenza A virus, UniProt Q194T2); type: functional, Influenza A virus (A/California/07/2009(H1N1))
# Nonstructural protein 1, sequence (Q194T2 whole entry): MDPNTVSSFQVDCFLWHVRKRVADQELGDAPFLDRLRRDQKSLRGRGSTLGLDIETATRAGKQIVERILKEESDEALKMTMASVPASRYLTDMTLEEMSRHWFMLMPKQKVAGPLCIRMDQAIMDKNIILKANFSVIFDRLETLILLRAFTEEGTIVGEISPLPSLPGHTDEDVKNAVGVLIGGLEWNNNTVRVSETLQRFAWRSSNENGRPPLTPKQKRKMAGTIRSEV
# HEK293 [17] = assay: cells; type: functional, cell-based; conditions: Homo sapiens; remark: listed apart in the source
# [18] = molecular target: T4, Nuclear receptor subfamily 0 group B member 1 (Homo sapiens, UniProt P51843); assay: Luminescence-based cell-based high throughput dose response assay for inhibitors of the orphan nuclear receptor subfamily 0, group B, member 1 (DAX1; NR0B1). [Related pubchem assays (depositor defined):AID504766, AID504790]; type: functional
# T4 sequence (P51843 whole entry): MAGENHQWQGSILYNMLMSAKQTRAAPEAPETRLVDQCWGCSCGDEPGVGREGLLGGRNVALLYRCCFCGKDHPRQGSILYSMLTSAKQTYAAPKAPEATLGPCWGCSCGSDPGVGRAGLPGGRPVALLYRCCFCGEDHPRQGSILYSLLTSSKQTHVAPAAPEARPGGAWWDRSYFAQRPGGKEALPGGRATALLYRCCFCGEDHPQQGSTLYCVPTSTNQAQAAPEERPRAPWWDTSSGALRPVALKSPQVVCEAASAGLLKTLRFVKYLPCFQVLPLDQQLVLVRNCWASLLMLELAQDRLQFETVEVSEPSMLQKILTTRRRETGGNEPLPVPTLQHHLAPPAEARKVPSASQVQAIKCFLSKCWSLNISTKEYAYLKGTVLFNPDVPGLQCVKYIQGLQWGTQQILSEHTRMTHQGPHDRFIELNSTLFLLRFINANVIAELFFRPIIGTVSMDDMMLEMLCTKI
# [19] = Luminescence Cell-Based Dose Response HTS to Identify Activators of Luciferase Translation or Activity in H4 […] Cells. [Related pubchem assays: 1829 (Project Summary), 1814 (Primary HTS)]; type: functional
# [20] = molecular target: T5, G-protein coupled receptor 35 (Homo sapiens, UniProt Q9HC97); assay: SAR analysis of Agonists of the GPR35 Receptor using an Image-Based Assay - Set 4. [Related pubchem assays (depositor defined):AID2013, AID2026]; type: functional
# T5 sequence (Q9HC97 whole entry): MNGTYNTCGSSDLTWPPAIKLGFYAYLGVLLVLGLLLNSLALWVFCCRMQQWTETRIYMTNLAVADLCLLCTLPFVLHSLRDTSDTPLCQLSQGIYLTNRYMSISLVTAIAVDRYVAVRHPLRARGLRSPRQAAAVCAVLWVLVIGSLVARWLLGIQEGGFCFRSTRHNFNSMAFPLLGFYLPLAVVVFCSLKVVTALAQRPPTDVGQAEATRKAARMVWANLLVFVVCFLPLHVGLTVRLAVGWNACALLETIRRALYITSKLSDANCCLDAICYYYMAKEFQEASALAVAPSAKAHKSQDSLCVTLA
# Cannabinoid receptor 1 [21] = molecular target: T6, Cannabinoid receptor 1 (Homo sapiens, UniProt P21554); assay: SAR analysis of agonists of the Cannabinoid Receptor 1 using an Image-Based Assay - Set 4. [Related pubchem assays (depositor defined):AID2013, AID2026]; type: functional
# T6 sequence (P21554 whole entry): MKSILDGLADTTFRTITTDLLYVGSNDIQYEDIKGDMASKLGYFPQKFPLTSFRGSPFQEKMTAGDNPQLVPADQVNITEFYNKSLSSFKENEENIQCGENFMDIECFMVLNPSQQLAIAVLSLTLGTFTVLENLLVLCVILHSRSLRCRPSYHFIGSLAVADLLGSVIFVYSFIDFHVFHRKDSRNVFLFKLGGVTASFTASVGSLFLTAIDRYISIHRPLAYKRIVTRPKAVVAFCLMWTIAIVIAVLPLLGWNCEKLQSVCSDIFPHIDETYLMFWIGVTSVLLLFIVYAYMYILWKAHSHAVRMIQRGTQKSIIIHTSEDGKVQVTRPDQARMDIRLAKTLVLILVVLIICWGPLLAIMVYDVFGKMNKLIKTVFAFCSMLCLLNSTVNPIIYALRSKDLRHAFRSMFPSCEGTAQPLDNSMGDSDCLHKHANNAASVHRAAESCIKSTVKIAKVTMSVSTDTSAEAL
# [22] = molecular target: T5, G-protein coupled receptor 35; assay: SAR analysis of Antagonists of the GPR35 Receptor using an Image-Based Assay - Set 6. [Related pubchem assays (depositor defined):AID2013, AID2026]; type: functional
# Cannabinoid receptor 1 [23] = molecular target: T6, Cannabinoid receptor 1; assay: SAR analysis of antagonists of the Cannabinoid Receptor 1 using an Image-Based Assay - Set 4. [Related pubchem assays (depositor defined):AID2013, AID2026]; type: functional
# [24] = molecular target: G-protein coupled receptor 55 (Homo sapiens, UniProt Q9Y2T6); assay: SAR Analysis of Selective Antagonists of GPR55 using an Image-Based Assay - Set 4. [Related pubchem assays (depositor defined):AID2013, AID2026]; type: functional;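 further: antagonism of response to 5 µM lysophosphatidylinositol agonist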
# G-protein coupled receptor 55, sequence (Q9Y2T6 whole entry): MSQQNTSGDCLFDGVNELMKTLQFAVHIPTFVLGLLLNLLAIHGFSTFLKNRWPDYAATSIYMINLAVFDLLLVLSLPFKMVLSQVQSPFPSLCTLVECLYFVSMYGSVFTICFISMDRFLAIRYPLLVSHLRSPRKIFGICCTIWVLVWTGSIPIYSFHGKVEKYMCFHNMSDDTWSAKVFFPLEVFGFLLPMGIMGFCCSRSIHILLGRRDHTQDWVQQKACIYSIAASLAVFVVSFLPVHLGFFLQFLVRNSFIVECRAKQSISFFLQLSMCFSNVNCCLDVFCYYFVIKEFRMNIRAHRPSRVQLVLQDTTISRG
# Cannabinoid receptor 2 [25] = molecular target: T7, Cannabinoid receptor 2 (Homo sapiens, UniProt P34972); assay: SAR analysis of antagonists of the Cannabinoid Receptor 2 using an Image-Based Assay - Set 3. [Related pubchem assays (depositor defined):AID2013, AID2026]; type: functional
# T7 sequence (P34972 whole entry): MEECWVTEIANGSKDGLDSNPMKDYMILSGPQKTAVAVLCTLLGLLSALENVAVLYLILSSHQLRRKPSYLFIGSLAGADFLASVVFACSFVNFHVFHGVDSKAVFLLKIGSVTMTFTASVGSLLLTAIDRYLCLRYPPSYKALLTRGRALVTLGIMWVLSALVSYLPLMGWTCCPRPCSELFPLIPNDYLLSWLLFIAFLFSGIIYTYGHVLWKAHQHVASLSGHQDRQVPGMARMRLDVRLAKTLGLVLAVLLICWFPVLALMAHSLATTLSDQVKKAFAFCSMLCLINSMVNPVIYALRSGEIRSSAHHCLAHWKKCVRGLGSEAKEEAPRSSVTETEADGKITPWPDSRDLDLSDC
# Cannabinoid receptor 2 [26] = molecular target: T7, Cannabinoid receptor 2; assay: SAR analysis of agonists of the Cannabinoid Receptor 2 using an Image-Based Assay - Set 3. [Related pubchem assays (depositor defined):AID2013, AID2026]; type: functional
smiles,measurement,setting,value
Clc1ccc(C2[C@H]3CN(Cc4cccnc4)[C@H](c4ccccc4)C34CC2(c2ccccc2)C4)cn1 (some centres undefined),EC50,[1],1.61 µM (active)
same,EC50,[2],9.94 µM (active)
same,AC50,Escherichia coli,34.8 µM (active)
Cc1ccc(C)c(C(=O)C2=C(O)C(=O)N(Cc3cccnc3)C2c2cccnc2)c1 (centres undefined),AC50,Cytochrome P450 2C9,3.16 µM (inconclusive)
same,AC50,Cytochrome P450 2D6,inconclusive
COc1cc(-c2c(C#N)c(N)nc3c2c(C)nn3-c2ccc(C)c(C)c2)cc(OC)c1OC,CC50,[3],22.1 µM (active)
same,EC50,[4],5.69 µM (active)
same,EC50,Streptokinase A,> 150 µM (not active)
same,EC50,Streptococcus,36.4 µM (active)
same,AC50,Trypsin,16.1 µM (active)
same,AC50,CAAX prenyl protease 2 [5],11.2 µM (active)
same,IC50,cells,31.8 µM (active)
O=C(c1ccc(Cn2cnnn2)cc1)N1CCCC(Nc2ccc(F)cc2)C1 (centres undefined),AC50,Trypsin,5.79 µM (active)
same,AC50,CAAX prenyl protease 2 [6],5.9 µM (active)
same,AC50,CAAX prenyl protease 2 [5],22.6 µM (active)
O=C1OCCC1Sc1nnc(-c2ccc(Cl)cc2Cl)o1 (centres undefined),EC50,[7],7.77 µM (active)
same,EC50,HEK293 [8],6.32 µM (active)
same,IC50,HEK293 [9],6.93 µM (active)
same,EC50,[10],9.97 µM (active)
same,EC50,[11],8.84 µM (active)
same,IC50,HEK293 [12],> 20 µM (inactive)
same,IC50,HEK293 [13],13 µM (inactive)
same,AC50,HEK293 [14],7.18 µM (active)
same,AC50,[15],9.34 µM (active)
same,AC50,[16],9.84 µM (active)
Cc1ccnc2nc(C(=O)Nc3nc(-c4ccccn4)cs3)nn12,IC50,Nonstructural protein 1,5.06 µM (active)
same,IC50,HEK293 [17],65.2 µM (inactive)
same,IC50,[18],> 67.5 µM (inactive)
CNC(=O)OCC[N+](C)(C)C,AC50,Cytochrome P450 2D6,inconclusive
O=C(Nc1ccc(F)cc1)/C(Cl)=C/c1ccccc1,EC50,[19],5.09 µM (active)
same,IC50,HEK293 [17],> 67.5 µM (inactive)
same,IC50,[18],> 67.5 µM (inactive)
Cc1nc(-c2cccc(S(=O)(=O)N3CCOCC3)c2)cs1,AC50,Escherichia coli,35.7 µM (active)
CC(C)NC(=O)c1cc2c(=O)n3ccccc3nc2n(C2CCCC2)c1=N,EC50,[20],> 32 µM (inactive)
same,EC50,Cannabinoid receptor 1 [21],> 32 µM (inactive)
same,IC50,[22],> 32 µM (inactive)
same,IC50,Cannabinoid receptor 1 [23],> 32 µM (inactive)
same,IC50,[24],> 32 µM (inactive)
same,IC50,Cannabinoid receptor 2 [25],> 32 µM (inactive)
same,EC50,Cannabinoid receptor 2 [26],9.06 µM (active)
Cc1nnc(-c2ccc(Cl)cc2)c2cn(-c3ccccc3)nc12,EC50,[20],> 32 µM (inactive)
same,EC50,Cannabinoid receptor 1 [21],> 32 µM (inactive)
same,IC50,[22],> 32 µM (inactive)
same,IC50,Cannabinoid receptor 1 [23],3.58 µM (active)
same,IC50,[24],19.2 µM (inactive)
same,IC50,Cannabinoid receptor 2 [25],19.5 µM (inactive)
same,EC50,Cannabinoid receptor 2 [26],> 32 µM (inactive)
COc1ccc(-c2nnc(C)c3nn(-c4ccc(Cl)cc4)cc23)cc1,EC50,[20],> 32 µM (inactive)
same,EC50,Cannabinoid receptor 1 [21],> 32 µM (inactive)
same,IC50,[22],> 32 µM (inactive)
same,IC50,Cannabinoid receptor 1 [23],1.47 µM (active)
same,IC50,[24],3.56 µM (active)
same,IC50,Cannabinoid receptor 2 [25],13.2 µM (inactive)
same,EC50,Cannabinoid receptor 2 [26],> 32 µM (inactive)
CCn1c2ccccc2c2cc(/C=N/NC(=O)c3ccc(O)cc3)ccc21,AC50,Trypsin,4.51 µM (active)
same,AC50,CAAX prenyl protease 2 [6],21.6 µM (active)
same,AC50,CAAX prenyl protease 2 [5],40.3 µM (active)
Fc1ccccc1/C=N/Nc1cc(N2CCCCC2)ncn1,IC50,HEK293 [17],> 67.5 µM (inactive)
same,IC50,[18],> 67.5 µM (inactive)
